Patent US9890142B2, “PDE4 inhibitor” (Meiji Seika Pharma Co., Ltd., priority 2013, dated 2018)

Each molecule was assayed on PDE4 (assay: Evaluation of PDE4 inhibition (scintillation proximity assay)). Settings: inhibition rate relative to control, test compound at 1 μM.
Type: biochemical
Method in brief: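 PDE4 was incubated 120 min at room temperature with [3H]-cAMP and compound in 50 mM Tris-HCl pH 7.5, 8.3 mM MgCl2, 1.7 mM EDTA, 0.3 mg/mL BSA. Product captured on ZnSO4-containing YSi-SPA beads and counted; inhibition calculated against DMSO control after no-enzyme blank subtraction.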

| Structure (SMILES) | PDE4 inhibitory activity (1 μM (%)) [%] |
| --- | --- |
| C[C@H]1CNCCN1c1nc2c(F)c(Cl)c(F)c(-c3nccs3)c2o1 [Example 121, (S)-5-Chloro-4,6-difluoro-2-(2-methylpiperazin-1-yl)-7-(thiazol-2-yl)benzoxazole] | 62 |
| C[C@H]1CNCCN1c1nc2c(F)c(F)c(F)c(-c3ccccn3)c2o1 [Example 122, (S)-4,5,6-Trifluoro-2-(2-methylpiperazin-1-yl)-7-(pyridin-2-yl)benzoxazole] | 79 |
| C[C@H]1CNCCN1c1nc2c(F)c(F)c(F)c(-c3nccs3)c2o1 [Example 123, (S)-4,5,6-Trifluoro-2-(2-methylpiperazin-1-yl)-7-(thiazol-2-yl)benzoxazole] | 95 |
| C[C@H]1CNCCN1c1nc2c(F)c(F)c(F)c(-n3cccn3)c2o1 [Example 124, (S)-4,5,6-Trifluoro-2-(2-methylpiperazin-1-yl)-7-(1H-pyrazol-1-yl)benzoxazole] | 46 |
| C[C@H]1CNCCN1c1nc2cc(C(F)(F)F)cc(-c3ccccn3)c2o1 [Example 125, (S)-2-(2-Methylpiperazin-1-yl)-7-(pyridin-2-yl)-5-(trifluoromethyl)benzoxazole] | 91 |
| C[C@H]1CNCCN1c1nc2cc(C(F)(F)F)cc(-c3nccs3)c2o1 [Example 126, (S)-2-(2-Methylpiperazin-1-yl)-7-(thiazol-2-yl)-5-(trifluoromethyl)benzoxazole] | 95 |
| C[C@H]1CNCCN1c1nc2cc(C(F)(F)F)cc(-c3ncco3)c2o1 [Example 127, (S)-2-(2-Methylpiperazin-1-yl)-7-(oxazol-2-yl)-5-(trifluoromethyl)benzoxazole] | 90 |
| C[C@H]1CNCCN1c1nc2c(F)c(Cl)cc(-c3ccccn3)c2o1 [Example 128, (S)-5-Chloro-4-fluoro-2-(2-methylpiperazin-1-yl)-7-(pyridin-2-yl)benzoxazole] | 79 |
| C[C@H]1CNCCN1c1nc2c(F)c(Cl)cc(-c3nccs3)c2o1 [Example 129, (S)-5-Chloro-4-fluoro-2-(2-methylpiperazin-1-yl)-7-(thiazol-2-yl)benzoxazole] | 97 |
| C[C@H]1CNCCN1c1nc2c(F)c(Cl)cc(-n3cccn3)c2o1 [Example 130, (S)-5-Chloro-4-fluoro-2-(2-methylpiperazin-1-yl)-7-(1H-pyrazol-1-yl)benzoxazole] | 83 |
| Cc1c(Cl)cc(-c2ccccn2)c2oc(N3CCNC[C@@H]3C)nc12 [Example 131, (S)-5-Chloro-4-methyl-2-(2-methylpiperazin-1-yl)-7-(pyridin-2-yl)benzoxazole] | 90 |
| Cc1c(Cl)cc(-c2nccs2)c2oc(N3CCNC[C@@H]3C)nc12 [Example 132, (S)-5-Chloro-4-methyl-2-(2-methylpiperazin-1-yl)-7-(thiazol-2-yl)benzoxazole] | 94 |
| Cc1c(Cl)cc(-n2cccn2)c2oc(N3CCNC[C@@H]3C)nc12 [Example 133, (S)-5-Chloro-4-methyl-2-(2-methylpiperazin-1-yl)-7-(1H-pyrazol-1-yl)benzoxazole] | 92 |
| C[C@H]1CNCCN1c1nc2c(OC(F)(F)F)c(F)cc(-c3ccccn3)c2o1 [Example 134, (S)-5-Fluoro-2-(2-methylpiperazin-1-yl)-7-(pyridin-2-yl)-4-(trifluoromethoxy)benzoxazole] | 88 |
| C[C@H]1CNCCN1c1nc2c(OC(F)(F)F)c(F)cc(-c3nccs3)c2o1 [Example 135, (S)-5-Fluoro-2-(2-methylpiperazin-1-yl)-7-(thiazol-2-yl)-4-(trifluoromethoxy)benzoxazole] | 99 |
| C[C@H]1CNCCN1c1nc2c(OC(F)(F)F)c(F)cc(-n3cccn3)c2o1 [Example 136, (S)-5-Fluoro-2-(2-methylpiperazin-1-yl)-7-(1H-pyrazol-1-yl)-4-(trifluoromethoxy)benzoxazole] | 90 |
| Cc1c(Cl)cc2nc(N3CCNC[C@@H]3C)oc2c1-c1ccccn1 [Example 137, (S)-5-Chloro-6-methyl-2-(2-methylpiperazin-1-yl)-7-(pyridin-2-yl)benzoxazole] | 33 |
| Cc1c(Cl)cc2nc(N3CCNC[C@@H]3C)oc2c1-c1nccs1 [Example 138, (S)-5-Chloro-6-methyl-2-(2-methylpiperazin-1-yl)-7-(thiazol-2-yl)benzoxazole] | 86 |
| Cc1c(Cl)cc2nc(N3CCNC[C@@H]3C)oc2c1-n1cccn1 [Example 139, (S)-5-Chloro-6-methyl-2-(2-methylpiperazin-1-yl)-7-(1H-pyrazol-1-yl)benzoxazole] | 39 |
| COc1c(Cl)cc2nc(N3CCNC[C@@H]3C)oc2c1-c1ccccn1 [Example 140, (S)-5-Chloro-6-methoxy-2-(2-methylpiperazin-1-yl)-7-(pyridin-2-yl)benzoxazole] | 35 |

| Structure (SMILES) | PDE4 inhibitory activity (1 μM (%)) [%] |
| --- | --- |
| COc1c(Cl)cc2nc(N3CCNC[C@@H]3C)oc2c1-c1nccs1 [Example 141, (S)-5-Chloro-6-methoxy-2-(2-methylpiperazin-1-yl)-7-(thiazol-2-yl)benzoxazole] | 77 |
| C[C@H]1CNCCN1c1nc2cc(Cl)c(C#N)c(-c3nccs3)c2o1 [Example 142, (S)-5-Chloro-6-cyano-2-(2-methylpiperazin-1-yl)-7-(thiazol-2-yl)benzoxazole] | 86 |
| C[C@H]1CNCCN1c1nc2c(C#N)c(Cl)cc(-c3nccs3)c2o1 [Example 143, (S)-5-Chloro-4-cyano-2-(2-methylpiperazin-1-yl)-7-(thiazol-2-yl)benzoxazole] | 94 |
| C[C@H]1CNCCN1c1nc2cc(F)c(C(F)(F)F)c(-c3nccs3)c2o1 [Example 144, (S)-5-Fluoro-2-(2-methylpiperazin-1-yl)-7-(thiazol-2-yl)-6-(trifluoromethyl)benzoxazole] | 41 |
| C[C@H]1CNCCN1c1nc2cc(Cl)cc(S(C)(=O)=O)c2o1 [Example 145, (S)-5-Chloro-2-(2-methylpiperazin-1-yl)-7-(methylsulfonyl)benzoxazole] | 80 |
| C[C@H]1CNCCN1c1nc2c(I)c(Cl)cc(-c3ccccn3)c2o1 [Example 146, (S)-5-Chloro-4-iodo-2-(2-methylpiperazin-1-yl)-7-(pyridin-2-yl)benzoxazole] | 95 |
| C[C@H]1CNCCN1c1nc2cc(Cl)c(I)c(-c3ccccn3)c2o1 [Example 147, (S)-5-Chloro-6-iodo-2-(2-methylpiperazin-1-yl)-7-(pyridin-2-yl)benz oxazole] | 53 |
| C[C@H]1CNCCN1c1nc2c(-c3ccccc3)c(Cl)cc(-c3ccccn3)c2o1 [Example 148, (S)-5-Chloro-2-(2-methylpiperazin-1-yl)-4-phenyl-7-(pyridin-2-yl)benzoxazole] | 94 |
| C[C@H]1CNCCN1c1nc2c(C3CC3)c(Cl)cc(-c3ccccn3)c2o1 [Example 149, (S)-5-Chloro-4-cyclopropyl-2-(2-methylpiperazin-1-yl)-7-(pyridin-2-yl)benzoxazole] | 91 |
| CSc1c(Cl)cc(-c2ccccn2)c2oc(N3CCNC[C@@H]3C)nc12 [Example 150, (S)-5-Chloro-2-(2-methylpiperazin-1-yl)-4-(methylthio)-7-(pyridin-2-yl)benzoxazole] | 91 |
| C[C@H]1CNCCN1c1nc2c(S(C)(=O)=O)c(Cl)cc(-c3ccccn3)c2o1 [Example 151, (S)-5-Chloro-2-(2-methylpiperazin-1-yl)-4-(methylsulfonyl)-7-(pyridin-2-yl)benzoxazole] | 76 |
| C[C@H]1CNCCN1c1nc2cc(Cl)c(Br)c(-c3ccccn3)c2o1 [Example 152, (S)-6-Bromo-5-chloro-2-(2-methylpiperazin-1-yl)-7-(pyridin-2-yl)benzoxazole] | 68 |
| COc1c(Cl)cc(-c2ccccn2)c2oc(N3CCNC[C@@H]3C)nc12 [Example 153, (S)-5-Chloro-4-methoxy-2-(2-methylpiperazin-1-yl)-7-(pyridin-2-yl)benzoxazole] | 93 |
| Cc1cc(Cl)cc2nc(N3CCNC[C@@H]3C)oc12 [Example 154, (S)-5-Chloro-7-methyl-2-(2-methylpiperazin-1-yl)benzoxazole] | 39 |
| COc1c(Cl)cc(-c2nccs2)c2oc(N3CCNC[C@@H]3C)nc12 [Example 155, (S)-5-Chloro-4-methoxy-2-(2-methylpiperazin-1-yl)-7-(thiazol-2-yl)benzoxazole] | 96 |
| COc1c(Cl)cc(-n2cccn2)c2oc(N3CCNC[C@@H]3C)nc12 [Example 156, (S)-5-Chloro-4-methoxy-2-(2-methylpiperazin-1-yl)-7-(1H-pyrazol-1-yl)benzoxazole] | 91 |
| C[C@@H]1CNCCN1c1nc2c(OC(F)(F)F)c(Cl)cc(-c3ccccn3)c2o1 [Example 157, (R)-5-Chloro-2-(2-methylpiperazin-1-yl)-7-(pyridin-2-yl)-4-(trifluoromethoxy)benzoxazole] | 41 |
| C[C@@H]1CNCCN1c1nc2c(OC(F)(F)F)c(Cl)cc(-c3nccs3)c2o1 [Example 158, (R)-5-Chloro-2-(2-methylpiperazin-1-yl)-7-(thiazol-2-yl)-4-(trifluoromethoxy)benzoxazole] | 88 |
| C[C@@H]1CNCCN1c1nc2c(OC(F)(F)F)c(Cl)cc(-n3cccn3)c2o1 [Example 159, (R)-5-Chloro-2-(2-methylpiperazin-1-yl)-7-(1H-pyrazol-1-yl)-4-(trifluoromethoxy)benzoxazole] | 57 |
| C[C@H]1CNCCN1c1nc2cc(Cl)c(OC(F)(F)F)c(-c3nccs3)c2o1 [Example 160, (S)-5-Chloro-2-(2-methylpiperazin-1-yl)-7-(thiazol-2-yl)-6-(trifluoromethoxy)benzoxazole] | 86 |
